Experimental data published in PMC7473324, “Histo-blood group antigens as divergent factors of groups A and C rotaviruses circulating in humans and different animal species” (Emerging Microbes & Infections, 2020).

Biological target: T1, GST-VP8* of P[16] murine RVA EMcN (Murine rotavirus EMcN, UniProt Q6WVQ1)
T1 construct: gene VP4; VP8* core aa 46-231, cut from VP4 precursor; N-terminal GST fusion kept; E. coli BL21
Experiment: CFG glycan array, GST-VP8* detected with fluorescent anti-GST antibody (RFU)
Format: binding
Conditions: immobilised glycan

In the case of OC[C@H]1O[C@H](O[C@H]2[C@@H](O)[C@@H](CO)O[C@@H](O[C@H]3[C@H](O)[C@@H](O)C(O)O[C@@H]3CO)[C@@H]2O)[C@H](O)[C@@H](O)[C@H]1O (stereo partly shown) [compound 117, Galα1-3Galβ1-4Glc], the “CFG glycan array, GST-VP8* detected with fluorescent anti-GST antibody (RFU)” value is reported as “Four strains exhibited strongest binding signals to the αGal containing glycans”.
